pIC50: −log10 of the molar value.
Experiments:
Assay in all cases: In vitro CYP inhibition, pooled human liver microsomes
Type in all cases: in vitro ADME
CYP2B6 = biological target: T1, CYP2B6 (Homo sapiens, UniProt P20813); settings: substrate Bupropion
T1 construct: 0.2–0.5 mg/mL pooled human liver microsomes; from tissue; host or cells: pooled human liver microsomes
T1 sequence (P20813 1-491): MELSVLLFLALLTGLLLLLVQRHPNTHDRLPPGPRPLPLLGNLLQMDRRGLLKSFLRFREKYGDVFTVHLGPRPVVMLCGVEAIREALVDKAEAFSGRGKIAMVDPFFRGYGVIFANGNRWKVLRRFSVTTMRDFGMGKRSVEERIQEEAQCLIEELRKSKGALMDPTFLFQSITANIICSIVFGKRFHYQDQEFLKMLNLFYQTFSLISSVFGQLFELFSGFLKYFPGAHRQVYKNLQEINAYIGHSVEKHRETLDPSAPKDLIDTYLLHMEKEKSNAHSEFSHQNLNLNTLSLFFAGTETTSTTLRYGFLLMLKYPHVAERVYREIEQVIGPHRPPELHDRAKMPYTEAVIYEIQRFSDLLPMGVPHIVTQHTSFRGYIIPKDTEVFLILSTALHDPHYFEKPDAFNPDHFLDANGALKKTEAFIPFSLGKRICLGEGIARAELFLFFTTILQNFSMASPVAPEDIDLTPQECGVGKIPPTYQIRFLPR
Description: (§1) Next, we tested VZHE-039 at concentrations of 0.1 to 100 µM, considered to be biologically relevant unbound plasma concentrations, for possible CYP inhibition using pooled human liver microsomes and isozyme-specific probe substrates (CYP1A2, CYP2C8, CYP2C9, CYP2C19, CYP2D6, CYP3A4, CYP2B6)[55].
(§2) VZHE-039 was studied for its inhibitory potential of seven major drug metabolizing human cytochrome P450 (CYP) enzymes (CYP1A2, CYP2C8, CYP2C9, CYP2C19, CYP2D6, CYP3A4, CYP2B6) using pooled human liver microsomes as published previously[26],[55]. The probe substrates include tacrine (CYP1A2), amodiaquine (CYP2C8), tolbutamide (CYP2C9), mephenytoin (CYP2C19), dextromethorphan (CYP2D6), midazolam (CYP3A4), testosterone (CYP3A4), and bupropion (CYP2B6). […] Assay conditions were optimized for each human cytochrome P450 substrate. The optimized reaction mixtures (200 μL) contained a final concentration of 0.2–0.5 mg/mL pooled human liver microsomes, 2 mM NADPH in 100 mM potassium phosphate, pH 7.4 buffer with 5 mM MgCl2, and VZHE-039 concentration of 0.1 to 100 µM. The assays were performed in duplicate in 96-well plates at 37 °C for 10–60 min. The reaction was terminated with addition of methanol, followed by incubation at 4 °C for 10 min and centrifuged at 4 °C for 10 min. Effect of VZHE-039 on formation of the respective probe substrate metabolites (velnacrine, N‐desethylamodiaquine, 4-hydroxytolbutamide, 4′-hydroxymephenytoin, dextrophan, 1′-hydroxymidazolam, and 6β-hydroxtestosterone and hydroxybupropion) were determined using LC–MS/MS.

CYP2C19 = biological target: T2, CYP2C19 (Homo sapiens, UniProt P33261); settings: substrate S-Mephentoin
T2 construct: 0.2–0.5 mg/mL pooled human liver microsomes; from tissue; host or cells: pooled human liver microsomes
Description: as §1, §2

CYP2D6 = biological target: T3, CYP2D6 (Homo sapiens, UniProt P10635); settings: substrate Dextromethorphan
T3 construct: 0.2–0.5 mg/mL pooled human liver microsomes; from tissue; host or cells: pooled human liver microsomes
Description: as §1, §2

CYP2C8 = biological target: T4, CYP2C8 (Homo sapiens, UniProt P10632); settings: substrate Amodiaquine
T4 construct: 0.2–0.5 mg/mL pooled human liver microsomes; from tissue; host or cells: pooled human liver microsomes
T4 sequence (P10632 1-490): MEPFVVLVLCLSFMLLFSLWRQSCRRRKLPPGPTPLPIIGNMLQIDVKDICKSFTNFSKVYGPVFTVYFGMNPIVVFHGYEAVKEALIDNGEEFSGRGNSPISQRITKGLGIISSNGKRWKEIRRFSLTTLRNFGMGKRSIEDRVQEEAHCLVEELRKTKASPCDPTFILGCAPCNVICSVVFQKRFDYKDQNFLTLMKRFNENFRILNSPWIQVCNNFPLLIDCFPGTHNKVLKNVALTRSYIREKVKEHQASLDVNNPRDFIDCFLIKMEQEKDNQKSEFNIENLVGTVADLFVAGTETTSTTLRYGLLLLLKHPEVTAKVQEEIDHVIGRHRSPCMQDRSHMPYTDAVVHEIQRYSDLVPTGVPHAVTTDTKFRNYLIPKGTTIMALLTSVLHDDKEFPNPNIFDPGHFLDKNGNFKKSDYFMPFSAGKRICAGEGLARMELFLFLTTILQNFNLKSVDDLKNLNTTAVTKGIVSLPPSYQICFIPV
Description: as §1, §2

CYP2C9 = biological target: T5, CYP2C9 (Homo sapiens, UniProt P11712); settings: substrate Tolbutamide
T5 construct: 0.2–0.5 mg/mL pooled human liver microsomes; from tissue; host or cells: pooled human liver microsomes
Description: as §1, §2

T3 sequence (P10635 whole entry): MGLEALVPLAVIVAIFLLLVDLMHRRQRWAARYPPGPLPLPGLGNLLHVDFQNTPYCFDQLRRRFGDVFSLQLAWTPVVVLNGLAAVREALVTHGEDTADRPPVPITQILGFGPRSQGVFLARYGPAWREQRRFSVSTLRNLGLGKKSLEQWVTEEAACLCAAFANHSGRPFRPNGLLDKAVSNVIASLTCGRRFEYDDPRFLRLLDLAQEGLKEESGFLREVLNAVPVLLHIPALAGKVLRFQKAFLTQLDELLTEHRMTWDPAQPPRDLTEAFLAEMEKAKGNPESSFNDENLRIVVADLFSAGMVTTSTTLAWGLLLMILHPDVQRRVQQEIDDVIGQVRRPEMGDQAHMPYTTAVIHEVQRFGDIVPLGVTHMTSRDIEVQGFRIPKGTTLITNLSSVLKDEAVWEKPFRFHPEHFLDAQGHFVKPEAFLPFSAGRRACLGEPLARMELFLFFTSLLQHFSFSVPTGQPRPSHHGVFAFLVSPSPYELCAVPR
T2 sequence (P33261 whole entry): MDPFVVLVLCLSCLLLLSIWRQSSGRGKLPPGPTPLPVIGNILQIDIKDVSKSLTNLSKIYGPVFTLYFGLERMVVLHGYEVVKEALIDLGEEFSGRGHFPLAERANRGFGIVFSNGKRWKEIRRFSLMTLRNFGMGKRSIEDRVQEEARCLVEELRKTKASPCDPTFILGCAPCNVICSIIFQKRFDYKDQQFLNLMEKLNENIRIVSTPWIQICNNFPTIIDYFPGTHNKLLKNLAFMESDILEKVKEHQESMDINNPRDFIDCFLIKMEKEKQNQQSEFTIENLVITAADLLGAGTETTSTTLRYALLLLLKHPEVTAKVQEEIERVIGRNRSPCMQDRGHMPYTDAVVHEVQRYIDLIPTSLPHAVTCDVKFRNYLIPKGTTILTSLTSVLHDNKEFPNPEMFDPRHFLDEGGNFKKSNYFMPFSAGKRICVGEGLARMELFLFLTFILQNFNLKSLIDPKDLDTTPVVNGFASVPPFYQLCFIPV
T5 sequence (P11712 whole entry): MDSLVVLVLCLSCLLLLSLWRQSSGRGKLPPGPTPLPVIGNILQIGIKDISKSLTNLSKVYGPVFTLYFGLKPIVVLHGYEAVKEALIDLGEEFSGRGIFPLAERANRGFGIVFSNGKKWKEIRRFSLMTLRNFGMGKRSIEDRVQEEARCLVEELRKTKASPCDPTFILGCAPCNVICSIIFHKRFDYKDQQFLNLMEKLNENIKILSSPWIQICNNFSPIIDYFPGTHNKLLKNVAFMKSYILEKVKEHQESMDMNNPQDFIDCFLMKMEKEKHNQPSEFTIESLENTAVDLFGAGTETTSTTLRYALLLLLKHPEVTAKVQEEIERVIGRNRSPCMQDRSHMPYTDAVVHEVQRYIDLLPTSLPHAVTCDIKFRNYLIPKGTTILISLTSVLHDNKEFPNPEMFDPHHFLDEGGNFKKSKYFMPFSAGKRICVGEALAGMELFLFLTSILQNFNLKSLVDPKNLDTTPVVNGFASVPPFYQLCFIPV

pIC50 (CYP2B6): 4.38
pIC50 (CYP2C19): < 4.00
pIC50 (CYP2D6): < 4.00
pIC50 (CYP2C8): < 4.00
pIC50 (CYP2C9): < 4.00
SMILES: O=Cc1c(O)cccc1OCc1cccc(CO)n1 [VZHE-039, 2-((6-(Hydroxymethyl)pyridin-2-yl)methoxy)-6-hydroxybenzaldehyde]

From PMC7679387, “VZHE-039, a novel antisickling agent that prevents erythrocyte sickling under both hypoxic and anoxic conditions” (Scientific Reports, 2020)
